Measured values from the supplement of paper PMC10307832.

Columns and labels:
Assay in all cases: relative viability (nuclei count vs DMSO), 5 days (fraction); higher = more cells survive
Ruboxistaurin = compound: CN(C)C[C@@H]1CCn2cc(c3ccccc32)C2=C(C(=O)NC2=O)c2cn(c3ccccc23)CCO1 [Ruboxistaurin]
Summary of the method: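 Nuclei counted with MetaXpress define viability as the ratio of treated to vehicle wells, given as a median across plates. The lung cancer cell lines were in 1536-well plates, pinned with five √10-spaced library-drug doses and imaged at 4× after 5 days and Hoechst staining. Plates passed with control CV below 25% and at least one doubling.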

[1] = compound: CN(C)C[C@@H]1CCn2cc(c3ccccc32)C2=C(C(=O)NC2=O)c2cn(c3ccccc23)CCO1 [Ruboxistaurin] + CC1(C)CCC(c2ccc(Cl)cc2)=C(CN2CCN(c3ccc(C(=O)NS(=O)(=O)c4ccc(N[C@H](CCN5CCOCC5)CSc5ccccc5)c(S(=O)(=O)C(F)(F)F)c4)cc3)CC2)C1 [Navitoclax] (partner 0.5 µM)
Summary of the method: (§1)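 Relative viability equals treated-well nuclei counts divided by vehicle-well nuclei counts. Counts came from 4× images of lung cancer cell lines grown in 1536-well plates for 5 days after pin-tool dosing on the day after seeding. Dosing used one drug alone or a fixed anchor-drug dose plus five library-drug doses (not always all listed) in √10 steps, and values are medians of duplicate plates.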

[2] = compound: CN(C)C[C@@H]1CCn2cc(c3ccccc32)C2=C(C(=O)NC2=O)c2cn(c3ccccc23)CCO1 [Ruboxistaurin] + C[C@]1(O)C[C@@H](c2nc(-c3ccc4ccc(-c5ccccc5)nc4c3)c3c(N)nccn32)C1 [Linsitinib] (partner 1 µM)
Summary of the method: as §1

[3] = compound: CN(C)C[C@@H]1CCn2cc(c3ccccc32)C2=C(C(=O)NC2=O)c2cn(c3ccccc23)CCO1 [Ruboxistaurin] + CC(C)C[C@H](NC(=O)[C@H](Cc1ccccc1)NC(=O)c1cnccn1)B(O)O [Bortezomib] (partner 0.002 µM)
Summary of the method: as §1

[4] = compound: CN(C)C[C@@H]1CCn2cc(c3ccccc32)C2=C(C(=O)NC2=O)c2cn(c3ccccc23)CCO1 [Ruboxistaurin] + C[C@@H](Oc1cc(-c2cnn(C3CCNCC3)c2)cnc1N)c1c(Cl)ccc(F)c1Cl [Crizotinib] (partner 1 µM)
Summary of the method: as §1

[5] = compound: CN(C)C[C@@H]1CCn2cc(c3ccccc32)C2=C(C(=O)NC2=O)c2cn(c3ccccc23)CCO1 [Ruboxistaurin] + CS(=O)(=O)N1CCN(Cc2cc3nc(-c4cccc5[nH]ncc45)nc(N4CCOCC4)c3s2)CC1 [Pictilisib] (partner 1 µM)
Summary of the method: as §1

[6] = compound: CN(C)C[C@@H]1CCn2cc(c3ccccc32)C2=C(C(=O)NC2=O)c2cn(c3ccccc23)CCO1 [Ruboxistaurin] + CS(=O)(=O)CCNCc1ccc(-c2ccc3ncnc(Nc4ccc(OCc5cccc(F)c5)c(Cl)c4)c3c2)o1 [Lapatinib] (partner 2 µM)
Summary of the method: as §1

[7] = compound: CN(C)C[C@@H]1CCn2cc(c3ccccc32)C2=C(C(=O)NC2=O)c2cn(c3ccccc23)CCO1 [Ruboxistaurin] + COc1cc2c(Oc3ccc(NC(=O)C4(C(=O)Nc5ccc(F)cc5)CC4)cc3F)ccnc2cc1OCCCN1CCOCC1 [Foretinib] (partner 0.25 µM)
Summary of the method: as §1

Ruboxistaurin + Olaparib = compound: CN(C)C[C@@H]1CCn2cc(c3ccccc32)C2=C(C(=O)NC2=O)c2cn(c3ccccc23)CCO1 [Ruboxistaurin] + O=C(c1cc(Cc2n[nH]c(=O)c3ccccc23)ccc1F)N1CCN(C(=O)C2CC2)CC1 [Olaparib] (partner 8 µM)
Summary of the method: as §1

[8] = compound: CN(C)C[C@@H]1CCn2cc(c3ccccc32)C2=C(C(=O)NC2=O)c2cn(c3ccccc23)CCO1 [Ruboxistaurin] + Cc1nc(NC(=O)N2CCC[C@H]2C(N)=O)sc1-c1ccnc(C(C)(C)C(F)(F)F)c1 [Alpelisib] (partner 2 µM)
Summary of the method: as §1

Cell Line	relative viability (Ruboxistaurin; 0.08 µM)	relative viability (Ruboxistaurin; 0.8 µM)	relative viability (Ruboxistaurin; 2.53 µM)	relative viability (Ruboxistaurin; 8 µM)	relative viability ([1]; first compound 0.08 µM)	relative viability ([1]; first compound 0.8 µM)	relative viability ([1]; first compound 2.53 µM)	relative viability ([1]; first compound 8 µM)	relative viability ([2]; first compound 0.08 µM)	relative viability ([2]; first compound 0.8 µM)	relative viability ([2]; first compound 2.53 µM)	relative viability ([2]; first compound 8 µM)	relative viability ([3]; first compound 0.08 µM)	relative viability ([3]; first compound 0.8 µM)	relative viability ([3]; first compound 2.53 µM)	relative viability ([3]; first compound 8 µM)	relative viability ([4]; first compound 0.08 µM)	relative viability ([4]; first compound 0.8 µM)	relative viability ([4]; first compound 2.53 µM)	relative viability ([4]; first compound 8 µM)	relative viability ([5]; first compound 0.08 µM)	relative viability ([5]; first compound 0.8 µM)	relative viability ([5]; first compound 2.53 µM)	relative viability ([5]; first compound 8 µM)	relative viability ([6]; first compound 0.08 µM)	relative viability ([6]; first compound 0.8 µM)	relative viability ([6]; first compound 2.53 µM)	relative viability ([6]; first compound 8 µM)	relative viability ([7]; first compound 0.08 µM)	relative viability ([7]; first compound 0.8 µM)	relative viability ([7]; first compound 2.53 µM)	relative viability ([7]; first compound 8 µM)	relative viability (Ruboxistaurin + Olaparib; first compound 0.08 µM)	relative viability (Ruboxistaurin + Olaparib; first compound 0.8 µM)	relative viability (Ruboxistaurin + Olaparib; first compound 2.53 µM)	relative viability (Ruboxistaurin + Olaparib; first compound 8 µM)	relative viability ([8]; first compound 0.08 µM)	relative viability ([8]; first compound 0.8 µM)	relative viability ([8]; first compound 2.53 µM)	relative viability ([8]; first compound 8 µM)
Calu-6	1.07	0.951	1.06	0.982	0.967	0.776	0.862	1.01	0.978	0.804	0.913	0.942	1.12	0.948	1.1	1.17	0.899	0.697	0.807	0.822	0.94	0.848	0.795	0.607	1.15	1.02	1.08	0.933	0.949	0.848	0.93	0.893	0.635	0.564	0.669	0.585	0.95	0.897	0.981	0.809
EBC-1	1.13	0.96	0.97	0.932	0.527	0.308	0.381	0.358	1.02	0.691	0.89	1.04	0.587	0.5	0.437	0.454	0.19	0.198	0.17	0.167	0.372	0.278	0.296	0.215	0.215	0.216	0.2	0.201	0.102	0.118	0.121	0.102	0.763	0.558	0.663	0.447	0.82	0.692	0.741	0.706
